In patent publication US20180184661A1, “Improved Herbicidal Composition, Method and Use” (Arysta LifeScience Benelux Sprl, priority 2015, published 2018):

Assays:
Assay in all cases: Pre-emergence field trial in citrus, residual broadleaf weed control
Assay type in all cases: in vivo
[1] = system: Wall-rocket (Diplotaxis erucoides, DIPER); settings: trial SRES14 061 230 HE, Spain, diuron 900 and/or oxyfluorfen 90 g a.i./ha, rated 15 to 90 days after application
Description: (§1) Field trials were conducted in citrus crops using standard herbicide small plot research methodology. Plots varied from 12 square meters (m^2) to 30 m^2 (2×15) with 3 to 4 replicates per treatment. The citrus crops were grown using normal cultural practices for the respective areas for the trials, using normal planting, fertilization, watering, flooding and maintenance for pests to ensure good growth of the crop and the weeds.
(§2) All treatments in the field trials were applied with a knapsack sprayer using compressed air as propellant. The sprayer was equipped with a boom and flat fan nozzles, and calibrated to apply homogeneously a spray volume of 200 to 400 litres/hectare at constant pressure.
(§3) Diuron in combination with oxyfluorfen, in the form of a ready for use formulation, was compared to a diuron formulation and an oxyfluorfen formulation, at dose rates of respectively […]., 900 g a.i./ha and 90 g a.i./ha.
(§4) Treatments were rated at different intervals from treatment to evaluation, from 15 to 120 days after application as compared to the untreated control plants. Assessment were done recording the percentage of ground covered by weeds and the visual efficacy on a scale of 0 to 100 percent where 0 corresponds to no weed control and 100 corresponds to complete weed control.
(§5) Trials were conducted under field conditions in Spain. Trial sites were located in commercially grown European citrus crop. The citrus trees were grown using normal cultural practices for fertilization, seeding and maintenance to ensure good growth of the crop and the weeds. The trials were conducted using normal research methodology. Plots varied from 12 square meters (m^2) to 30 m^2 (2×15) with 3 to 4 replicates per treatment. All treatment results are an average of 3 to 4 replicates. The trials had naturally occurring populations of weeds. The weed spectrum included, but was not limited to black nightshade (Solanum nigrum; SOLNI), Sow thistle (Sonchus tenerrimus, SONTE), fleabane (Conyza bonariensis, ERIBO), DIPER, hairy fleabane (Conyza bonariensis, ERIBO), redroot pigweed (Amaranthus retroflexus, AMA).
(§6) Treatments consisted applications of diuron+oxyfluorfen, diuron solo or oxyfluorfen solo. […] Colby's equation was used to determine the herbicidal effects expected from the mixtures (Colby, S. R. Calculation of the synergistic and antagonistic response of herbicide combinations. Weeds 1967, 15, 20-22.). The following equation was used to calculate the expected activity of mixtures containing two active ingredients, A and B:
(§7) A=observed efficacy of active ingredient A at the s e concentration as used in the mixture. B=observed efficacy of active ingredient B at the s e concentration as used in the mixture.
(§8) Ob=Observed visual weed control, Ex=Expected weed control as defined by Colby Equation

[2] = system: black nightshade (Solanum nigrum, SOLNI); settings: trial SRES14 059 230 HE, Spain, diuron 900 and/or oxyfluorfen 90 g a.i./ha, rated 15 to 90 days after application
Description: as §1, §2, §3, §4, §5, §6, §7, §8

[3] = system: fleabane (Conyza bonariensis, ERIBO); settings: Spain, diuron 900 and/or oxyfluorfen 90 g a.i./ha, rated 15 to 90 days after application
Description: as §1, §2, §3, §4, §5, §6, §7, §8

[4] = system: pigweed, redroot (Amaranthus retroflexus, AMARE); settings: trial SRES14 061 230 HE, Spain, diuron 900 and/or oxyfluorfen 90 g a.i./ha, rated 15 to 90 days after application
Description: as §1, §2, §3, §4, §5, §6, §7, §8

[5] = system: Sow thistle (Sonchus tenerrimus, SONTE); settings: Spain, diuron 900 and/or oxyfluorfen 90 g a.i./ha, rated 15 to 90 days after application
Description: as §1, §2, §3, §4, §5, §6, §7, §8

Row | SMILES | % Control DIPER Obs [1] | % Control SOLNI Obs [2] | % Control ERIBO Obs ([3]; trial SRES14 059 230 HE) | % Control ERIBO Obs ([3]; trial SRES14 060 230 HE) | % Control ERIBO Obs ([3]; trial SRES14 061 230 HE) | % Control AMARE Obs [4] | % Control SONTE Obs ([5]; trial SRES14 059 230 HE) | % Control SONTE Obs ([5]; trial SRES14 060 230 HE)
1 | CN(C)C(=O)Nc1ccc(Cl)c(Cl)c1 [Diuron, N′-(3,4-dichlorophenyl)-N,N-dimethylurea] | 88.8% | 55% | 62.5% | 46.3% | 28.8% | 53.8% | 57.5% | 45%
2 | CCOc1cc(Oc2ccc(C(F)(F)F)cc2Cl)ccc1[N+](=O)[O-] [Oxyfluorfen, 2-chloro-1-(3-ethoxy-4-nitrophenoxy)-4-(trifluoromethyl)benzene] | 20% | 47.5% | 35% | 47.5% | 43.8% | 45% | 28.8% | 10%
